Measurements as given in patent publication US5272143A, “6-oxoazepinoindole compounds, and pharmaceutical compositions containing them” (Kali-Chemie Pharma GmbH, priority 1991, dated 1993).
Counter-ions that a name gives are not always drawn.

Tests used:
Mouse = test system: Mouse; parameters: species or system Male mice; conditions: in vivo, po, 4320 min
Method: 1. Determination of the minimum toxic dose.
Male mice of 20-25 g weight are administered maximum doses of 300 mg/kg of the test substance p.o. The animals were carefully observed for 3 hours for symptoms of toxicity. Over a period of 72 hours after administration, all symptoms and cases of death are additionally recorded. Concomitant symptoms are likewise observed and recorded. If death or strong toxic symptoms are observed, further mice are administered increasingly lower doses until toxic symptoms no longer occur. The lowest dose which causes death or strong toxic symptoms is given in the following Table A as the minimum toxic dose. The example numbers given in Table A relate to the subsequent preparation examples.

stomach motility = experiment: Determination of effect on stomach motility in anaesthetised rats; type: in vivo, rats of the SIV 50 strain; conditions: rat, 100 μmole/kg i.p.; for change in vivo at 100 µmol/kg: ip, read-out: Maximum Amplitude Increase (increase in % of control amplitude)
Method: 2. Determination of effect on stomach motility in anaesthetised rats.
For the tests, groups of 5-6 fasting rats of the SIV 50 strain having a body weight of 220-290 g were used in each test which had been anaesthetised with a ketamine/xylazine mixture. The animals received an initial dose of 1 ml/kg of a solution of 50 mg/ml of ketamine and 10 mg/ml of xylazine administered i.p., and the anaesthetic level was maintained by a continuous intraperitoneal infusion of the same solution at an infusion rate of 1 ml/kg/h. The animals were tracheotomised and laparotomised. After applying a pylorus ligature, a stomach tube was inserted into the stomach and connected at the other end by means of a three-way tap to a calibrated pressure transducer (Statham Element P 23 ID). A corresponding tube was inserted rectally 8-9 cm into the colon and likewise connected in the same manner to a calibrated pressure transducer of the same type. The stomachs of the animals were then filled with 2 ml of water via the tube. After a stabilisation phase of 40 min, the pressure variations in the stomach and colon were measured over a test period of 2 hours and 20 minutes, and the amplitudes produced by the phasic gastric motility were recorded by means of a Watanabe multirecorder (MC 6621). The geometric mean values of the amplitudes during the first 20 min were determined for the individual animals and used as control amplitude values. After the first 20 min, the test substances were administered i.p. The maximum increase in amplitude (=mean value of the 20 minute period in which the highest increase in amplitude occurs) caused by the test substances was determined in % increase of the control amplitude values determined before administration of the test substances, and the mean value for the animal group is given in the following Table A. In addition, the maximum increase in the mean gastric tone caused by the test substances during the test period compared with the mean gastric tone existing before administration of the test substances was recorded. This increase in gastric tone is given in Table A in cm of H2 O (mean value of the animal group). In the colon, the test substances cause amplitude damping.

5-HT1-like receptors = experiment: Serotonin-agonistic contractions in segments of the isolated basilar artery of the pig (in vitro antimigraine activity); type: cell-based
From the text: 3. Investigation of Properties Indicating Antimigraine Activity of Test Substance in vitro. Migraine pains are associated with excessive dilation of the cranial vascular system. […] This property of the test substances can be used as a basis for predicting anti-migraine activity. The serotoninagonistic activity of the substances on 5-HT1 -like receptors can be determined in vitro in isolated organ strips from the basilar artery of a pig. […] Such a contraction is also produced by the test substances and is a good index of the antimigraine activity of the substances. The tests are carried out according to the method described by van Charldorp et al. (Naunyn-Schmiedeb. Arch. Pharmacol. supp. to volume 341, R89, 1990 and Eur. J. Pharmacol. 183, 1106-1107, 1990). Experimental description of the in vitro determination of the effect inducing serotonin-agonistic contractions in segments of the isolated basilar artery of the pig. For the experiment, helical segments of the basilar artery of pigs were used which were isolated from pig brains supplied by a slaughterhouse. Each strip was fixed in an organ bath consisting of 10 ml of a modified Tyrode solution such that the tissue was under a tension of 10 mN. […] The solution was modified by adding 10^-8 mol/l of indomethacin, 10^-7 mol/l of atropine and 10^-7 mol/l of propanolol and adjusted to pH=7.4. The bath was aerated with a mixture of 95% O2 and 5% CO2. After an equilibration phase of 1 hour a contraction of the tissue was produced twice, in each case by addition of serotonin at a concentration of 10^-5 mol/l and the preparation was subsequently washed out. The contraction effect was then measured with increasing serotonin concentration and a cumulative concentration effect curve for serotonin was drawn up. A cumulative concentration effect curve was drawn up for the test substance on the same preparation (after washing out again). In the following Table B, the maximum contraction caused by the test substances in relationship to the maximum contraction produced by serotonin, and the negative logarithm of that concentration of the test substance which produces 50% of the maximum contraction which can be produced by this test substance (=pD2), and the relative potency calculated as pD2 of the test substance relative to the pD2 of serotonin determined on the same piece of artery are given.

[1] = porcine basilar artery, in vitro

| Structure (SMILES) | Minimum Toxic Dose (Mouse) [mg/kg] | change in vivo at 100 µmol/kg (stomach motility) [%] | Gastric Tone Increase (stomach motility) [cm H2O] | further results |
| --- | --- | --- | --- | --- |
| CN(C)C=NCC1CNC(=O)c2cccc3[nH]cc1c23 (centres unmarked) [Example 15, 3-(Dimethylaminomethylideneaminomethyl)-3,4,5,6-tetrahydro-6-oxo-1H-azepino[5,4,3-cd]indole] | > 300 | 308 | 3.1 | – |
| O=C1NC(CN2CCN(c3ccccc3)CC2)Cc2c[nH]c3cccc1c23 (centres unmarked) [Example 17, 4-(4-Phenylpiperazin-1-ylmethyl)-3,4,5,6-tetrahydro-6-oxo-1H-azepino[5,4,3-cd]indole] | > 300 | 293 | – | – |
| NCC1CNC(=O)c2cccc3c2c1cn3Cc1ccccc1 (centres unmarked) [Example 10, 1-Benzyl-3-aminomethyl-3,4,5,6-tetrahydro-6-oxo-1H-azepino[5,4,3-cd]indole] | > 300 | 663 | 10.5 | – |
| CCCCNCC1CNC(=O)c2cccc3[nH]cc1c23 (centres unmarked) [Example 41] | > 300 | 234 | 2.7 | – |
| CNC[C@@H]1CNC(=O)c2cccc3[nH]cc1c23 [Example 4a, 3R(+)-3-methylaminomethyl-3,4,5,6-tetrahydro-6-oxo-1H-azepino[5,4,3-cd]indole hydrochloride] | – | – | – | Maximum Contraction Produced by Test Substance Relative to Maximum Contraction Produced by Serotonin = 1 (5-HT1-like receptors; [1]): 0.6; relative potency calculated as pD2 of the test substance relative to the pD2 of serotonin determined on the same piece of artery (5-HT1-like receptors; [1]): 0.354; pD2 = neg. log of Concentration Which Produces 50% of Maximum Contraction (5-HT1-like receptors; porcine basilar artery, in vitro, concentrations in mol/l): 7.0 |
| COc1ccc(CCNCC2CNC(=O)c3cccc4[nH]cc2c34)cc1OC (centres unmarked) [Example 32] | > 300 | 922 | – | – |
| CC(C)n1cc2c3c(cccc31)C(=O)NCC2CN (centres unmarked) [Example 34] | – | 467 | – | – |
| O=C1NC(CNC2CC2)Cc2c[nH]c3cccc1c23 (centres unmarked) [Example 45] | > 300 | 580 | 3.5 | – |
| NCCc1c[nH]c2ccc(O)cc12 [Serotonin, reference compound] | – | – | – | action on 5-HT1-like receptors in the basilar artery (contraction) (5-HT1-like receptors; isolated basilar artery): concentration -dependent contraction |
| CC(C)NCC1CNC(=O)c2cccc3[nH]cc1c23 (centres unmarked) [Example 6, 3-Isopropylaminomethyl-3,4,5,6-tetrahydro-6-oxo-1H-azepino[5,4,3-cd]indole] | > 300 | 609 | 15.4 | – |
| CCNCC1CNC(=O)c2cccc3[nH]cc1c23 (centres unmarked) [Example 5a, 3-Ethylaminomethyl-3,4,5,6-tetrahydro-6-oxo-1H-azepino[5,4,3-cd]indole] | > 300 | – | 9.5 | – |
| O=C1NC(CN2CCOCC2)Cc2c[nH]c3cccc1c23 (centres unmarked) [Example 29] | > 300 | 154 | – | – |
| O=C1NCC(CN2CCCC2)c2c[nH]c3cccc1c23 (centres unmarked) [Example 37] | > 300 | 950 | 4.0 | – |
| O=C1NCC(CNCc2ccccc2)c2c[nH]c3cccc1c23 (centres unmarked) [Example 2, 3-Benzylaminomethyl-3,4,5,6-tetrahydro-6-oxo-1H-azepino[5,4,3-cd]indole] | > 300 | 239 | – | – |
| CCCN(CCC)CC1CNC(=O)c2cccc3[nH]cc1c23 (centres unmarked) [Example 40] | > 300 | 997 | 6.5 | – |
| CC(C)(C)NCC1Cc2c[nH]c3cccc(c23)C(=O)N1 (centres unmarked) [Example 31] | > 300 | 928 | – | – |
| NCCC1Cc2c[nH]c3cccc(c23)C(=O)N1 (centres unmarked) [Example 8, 4-(2-Aminoethyl)-3,4,5,6-tetrahydro-6-oxo-1H-azepino[5,4,3-cd]indole] | > 300 | 569 | – | – |
| CN1CCN(CC2Cc3c[nH]c4cccc(c34)C(=O)N2)CC1 (centres unmarked) [Example 25] | 300 | 206 | – | – |
| CCCNCC1CNC(=O)c2cccc3[nH]cc1c23 (centres unmarked) [Example 38] | > 300 | 559 | 12.4 | – |
| NCC1CNC(=O)c2cccc3c2c1cn3CCCc1ccccc1 (centres unmarked) [Example 13, 3-Aminomethyl-1-(3-phenylpropyl)-3,4,5,6-tetrahydro-6-oxo-1H-azepino[5,4,3-cd]indole] | > 300 | 332 | 7.2 | – |
| COc1ccc(CCn2cc3c4c(cccc42)C(=O)NCC3CN)cc1OC (centres unmarked) [Example 36] | > 300 | 351 | 11.5 | – |
| CN(C)CC1CNC(=O)c2cccc3[nH]cc1c23 (centres unmarked) [Example 39] | > 300 | 569 | 1.8 | – |
| O=C1NC(CNC2CCCCC2)Cc2c[nH]c3cccc1c23 (centres unmarked) [Example 28] | > 300 | 17 | 0.5 | – |
| O=C1NCC(CN2CCCCC2)c2c[nH]c3cccc1c23 (centres unmarked) [Example 14, 3-(1-Piperidinylmethyl)-3,4,5,6-tetrahydro-6-oxo-1H-azepino[5,4,3-cd]indole] | > 300 | – | 3.0 | – |
| Cc1ccc(CNCC2CNC(=O)c3cccc4[nH]cc2c34)cc1 (centres unmarked) [Example 24] | > 300 | 195 | – | – |
| O=C1NCC(CNCC2CC2)c2c[nH]c3cccc1c23 (centres unmarked) [Example 47] | – | – | 6.7 | – |
| CCN(CC)CC1CNC(=O)c2cccc3[nH]cc1c23 (centres unmarked) [Example 5b, 3-Diethylaminomethyl-3,4,5,6-tetrahydro-6-oxo-1H-azepino[5,4,3-cd]indole] | > 300 | 449 | 3.8 | – |
